Measurements: US6936585B2, “Corticotropin releasing factor 2 receptor agonists” (priority 2002, dated 2005)
Ends that are not written are not given here. Peptide text beside a SMILES is read from it.

Experiments:
[1] = target: T1, CRF2R (Homo sapiens, UniProt Q13324); assay: CRF2R agonist activation (EC50 / Emax), called comparative CRF binding; assay type: cell-based; conditions: read-out: CRF2R Emax
T1 sequence (Q13324 1-411): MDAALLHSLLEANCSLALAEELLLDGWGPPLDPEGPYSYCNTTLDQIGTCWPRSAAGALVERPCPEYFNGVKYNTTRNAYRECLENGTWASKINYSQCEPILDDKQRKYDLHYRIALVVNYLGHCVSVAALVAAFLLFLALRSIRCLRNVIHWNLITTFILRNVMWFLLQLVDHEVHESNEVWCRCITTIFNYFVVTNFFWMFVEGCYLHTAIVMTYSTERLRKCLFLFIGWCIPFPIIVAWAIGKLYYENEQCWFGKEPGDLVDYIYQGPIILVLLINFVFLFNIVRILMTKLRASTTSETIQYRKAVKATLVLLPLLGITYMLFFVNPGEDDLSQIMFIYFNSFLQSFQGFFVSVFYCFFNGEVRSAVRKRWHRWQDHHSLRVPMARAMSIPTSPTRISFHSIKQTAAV
Method in brief: (§1)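 Cells expressing full-length human CRF1R or CRF2R were exposed to peptide or vehicle control, and receptor activation was gauged as cAMP induction. cAMP was measured in cell lysates or via a cAMP-responsive element driving a reporter gene such as luciferase, CAT, GFP or alkaline phosphatase.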

[2] = target: T2, CRF1R (Homo sapiens, UniProt P34998); assay: CRF1R agonist activation (EC50 / Emax), called comparative CRF binding; assay type: cell-based; conditions: read-out: CRF1R Emax
T2 sequence (P34998 24-415): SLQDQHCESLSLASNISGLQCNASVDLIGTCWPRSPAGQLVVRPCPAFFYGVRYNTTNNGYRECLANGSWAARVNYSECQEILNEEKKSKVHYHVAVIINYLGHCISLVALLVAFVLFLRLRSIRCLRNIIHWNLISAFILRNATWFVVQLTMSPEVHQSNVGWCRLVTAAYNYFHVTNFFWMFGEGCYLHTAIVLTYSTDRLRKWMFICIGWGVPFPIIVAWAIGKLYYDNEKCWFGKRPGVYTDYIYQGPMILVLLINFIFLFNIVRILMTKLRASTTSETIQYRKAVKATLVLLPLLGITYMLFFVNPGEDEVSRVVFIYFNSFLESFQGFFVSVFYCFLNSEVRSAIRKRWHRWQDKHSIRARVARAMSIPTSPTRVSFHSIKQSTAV
Method in brief: as §1

Compound	Emax [1] [%]	Emax [2] [%]
CC[C@H](C)[C@H](N)C(=O)N[C@H](C(=O)N[C@@H](CC(C)C)C(=O)N[C@@H](CO)C(=O)N[C@@H](CC(C)C)C(=O)N[C@@H](CC(=O)O)C(=O)N[C@H](C(=O)N1CCC[C@H]1C(=O)N[C@H](C(=O)NCC(=O)N[C@@H](CC(C)C)C(=O)N[C@@H](CC(C)C)C(=O)N[C@@H](CCC(N)=O)C(=O)N[C@H](C(=O)N[C@@H](CC(C)C)C(=O)N[C@@H](CC(C)C)C(=O)N[C@@H](CCC(=O)O)C(=O)N[C@@H](CCSC)C(=O)N[C@H](C(=O)N[C@@H](CCCCN)C(=O)N[C@@H](C)C(=O)N[C@@H](CC(=O)O)C(=O)N[C@@H](CCC(N)=O)C(=O)N[C@@H](CC(C)C)C(=O)N[C@@H](C)C(=O)N[C@@H](CCC(N)=O)C(=O)N[C@@H](CCC(N)=O)C(=O)N[C@@H](C)C(=O)N[C@@H](Cc1c[nH]cn1)C(=O)N[C@@H](CO)C(=O)N[C@@H](CC(N)=O)C(=O)N[C@@H](CCCNC(=N)N)C(=O)N[C@@H](CCCCN)C(=O)N[C@@H](CC(C)C)C(=O)N[C@@H](CC(C)C)C(=O)N[C@@H](CC(=O)O)C(=O)N[C@H](C(=O)N[C@@H](C)C(N)=O)[C@@H](C)CC)[C@@H](C)O)[C@@H](C)CC)[C@@H](C)CC)C(C)C)C(C)C [compound 155] (H-IVLSLDVPIGLLQILLEMTKADQLAQQAHSNRKLLDIA-NH2; N-terminus assumed)	94	16
SEEPPISLDVPIGLLQEVLEMARAEQLAQQAHSNRKLMEII-NH2 [compound 162]	7	11
CC[C@H](C)[C@H](N)C(=O)N[C@H](C(=O)N[C@@H](CC(C)C)C(=O)N[C@@H](CO)C(=O)N[C@@H](CC(C)C)C(=O)N[C@@H](CC(=O)O)C(=O)N[C@H](C(=O)N1CCC[C@H]1C(=O)N[C@H](C(=O)NCC(=O)N[C@@H](CC(C)C)C(=O)N[C@@H](CC(C)C)C(=O)N[C@@H](CCC(N)=O)C(=O)N[C@H](C(=O)N[C@@H](CC(C)C)C(=O)N[C@@H](CC(C)C)C(=O)N[C@@H](CCC(=O)O)C(=O)N[C@@H](CCC(N)=O)C(=O)N[C@@H](CCC(=O)O)C(=O)N[C@@H](CCCCN)C(=O)N[C@@H](CCC(N)=O)C(=O)N[C@@H](CCCNC(=N)N)C(=O)N[C@@H](C)C(=O)N[C@@H](C)C(=O)N[C@@H](CCCNC(=N)N)C(=O)N[C@@H](CCC(=O)O)C(=O)N[C@@H](CCC(N)=O)C(=O)N[C@@H](C)C(=O)N[C@H](C(=O)N[C@H](C(=O)N[C@@H](CC(N)=O)C(=O)N[C@@H](C)C(=O)N[C@@H](CCCNC(=N)N)C(=O)N[C@H](C(=O)N[C@@H](CC(C)C)C(=O)N[C@@H](C)C(=O)N[C@@H](CCCNC(=N)N)C(=O)N[C@H](C(N)=O)C(C)C)[C@@H](C)CC)[C@@H](C)O)[C@@H](C)O)[C@@H](C)CC)[C@@H](C)CC)C(C)C)C(C)C [compound 115] (H-IVLSLDVPIGLLQILLEQEKQRAAREQATTNARILARV-NH2; N-terminus assumed)	98	7
CC[C@H](C)[C@H](NC(=O)[C@H](CCCNC(=N)N)NC(=O)[C@H](C)NC(=O)[C@H](CC(N)=O)NC(=O)[C@H](CCC(N)=O)NC(=O)[C@H](CCC(=O)O)NC(=O)[C@H](C)NC(=O)[C@H](CCCNC(=N)N)NC(=O)[C@H](CCC(=O)O)NC(=O)[C@H](CCCNC(=N)N)NC(=O)[C@H](CCC(N)=O)NC(=O)[C@H](CO)NC(=O)[C@H](CCC(N)=O)NC(=O)[C@@H](NC(=O)[C@H](CCCCN)NC(=O)[C@H](CCC(=O)O)NC(=O)[C@H](CC(C)C)NC(=O)[C@H](CCC(=O)O)NC(=O)[C@H](CC(C)C)NC(=O)[C@H](CC(C)C)NC(=O)[C@@H](NC(=O)[C@H](CCCNC(=N)N)NC(=O)[C@H](CC(C)C)NC(=O)[C@H](CC(C)C)NC(=O)[C@H](CC(C)C)NC(=O)[C@H](CC(C)C)NC(=O)[C@@H]1CCCN1C(=O)[C@H](CC(C)C)NC(=O)[C@H](CC(=O)O)NC(=O)[C@@H](NC(=O)[C@H](CO)NC(=O)[C@H](CC(C)C)NC(=O)[C@H](CO)NC(=O)[C@@H]1CCCN1C(=O)[C@H](CC(N)=O)NC(=O)[C@@H](N)CC(=O)O)[C@@H](C)CC)[C@@H](C)O)[C@@H](C)O)C(=O)N[C@@H](Cc1ccccc1)C(=O)N[C@@H](CC(=O)O)C(=O)N[C@@H](CCCNC(=N)N)C(=O)N[C@H](C(N)=O)C(C)C [compound 338] (H-DNPSLSIDLPLLLLRTLLELEKTQSQRERAEQNARIFDRV-NH2; N-terminus assumed)	77.5	41.1
CC[C@H](C)[C@H](N)C(=O)N[C@H](C(=O)N[C@@H](CC(C)C)C(=O)N[C@@H](CO)C(=O)N[C@@H](CC(C)C)C(=O)N[C@@H](CC(=O)O)C(=O)N[C@H](C(=O)N1CCC[C@H]1C(=O)N[C@H](C(=O)NCC(=O)N[C@@H](CC(C)C)C(=O)N[C@@H](CC(C)C)C(=O)N[C@@H](CCC(N)=O)C(=O)N[C@H](C(=O)N[C@@H](CC(C)C)C(=O)N[C@@H](CC(C)C)C(=O)N[C@@H](CCC(=O)O)C(=O)N[C@@H](CCC(N)=O)C(=O)N[C@@H](C)C(=O)N[C@@H](C)C(=O)N[C@@H](C)C(=O)N[C@@H](C)C(=O)N[C@@H](CCCNC(=N)N)C(=O)N[C@@H](CCC(=O)O)C(=O)N[C@@H](CCC(N)=O)C(=O)N[C@@H](C)C(=O)N[C@H](C(=O)N[C@H](C(=O)N[C@@H](CC(N)=O)C(=O)N[C@@H](C)C(=O)N[C@@H](CCCNC(=N)N)C(=O)N[C@H](C(=O)N[C@@H](CC(C)C)C(=O)N[C@@H](C)C(=O)N[C@@H](CCCNC(=N)N)C(=O)N[C@H](C(N)=O)C(C)C)[C@@H](C)CC)[C@@H](C)O)[C@@H](C)O)[C@@H](C)CC)[C@@H](C)CC)C(C)C)C(C)C [compound 134] (H-IVLSLDVPIGLLQILLEQAAAAREQATTNARILARV-NH2)	19	7
CC[C@H](C)[C@H](N)C(=O)N[C@H](C(=O)N[C@@H](CC(C)C)C(=O)N[C@@H](CO)C(=O)N[C@@H](CC(C)C)C(=O)N[C@@H](CC(=O)O)C(=O)N[C@H](C(=O)N1CCC[C@H]1C(=O)N[C@H](C(=O)NCC(=O)N[C@@H](CC(C)C)C(=O)N[C@@H](CC(C)C)C(=O)N[C@@H](CCC(N)=O)C(=O)N[C@H](C(=O)N[C@@H](CC(C)C)C(=O)N[C@@H](CC(C)C)C(=O)N[C@@H](CCC(=O)O)C(=O)N[C@@H](CCC(N)=O)C(=O)N[C@@H](C)C(=O)N[C@@H](CCCNC(=N)N)C(=O)N[C@@H](C)C(=O)N[C@@H](CCCNC(=N)N)C(=O)N[C@@H](C)C(=O)N[C@@H](C)C(=O)N[C@@H](CCCNC(=N)N)C(=O)N[C@@H](CCC(=O)O)C(=O)N[C@@H](CCC(N)=O)C(=O)N[C@@H](C)C(=O)N[C@H](C(=O)N[C@H](C(=O)N[C@@H](CCC(N)=O)C(=O)N[C@@H](C)C(=O)N[C@@H](CCCNC(=N)N)C(=O)N[C@H](C(=O)N[C@@H](CC(C)C)C(=O)N[C@@H](C)C(=O)N[C@@H](CCCNC(=N)N)C(=O)N[C@H](C(N)=O)C(C)C)[C@@H](C)CC)[C@@H](C)O)[C@@H](C)O)[C@@H](C)CC)[C@@H](C)CC)C(C)C)C(C)C [compound 9] (H-IVLSLDVPIGLLQILLEQARARAAREQATTQARILARV-NH2)	34	10
